# Molecular target: T1, carboxyl esterase (Bacillus subtilis, UniProt Q59248)
# T1 construct: document's preparation is from B. subtilis 1-85/pNAPT-7 (cloned Thai I-8 gene)
# T1 sequence (Q59248 1-300): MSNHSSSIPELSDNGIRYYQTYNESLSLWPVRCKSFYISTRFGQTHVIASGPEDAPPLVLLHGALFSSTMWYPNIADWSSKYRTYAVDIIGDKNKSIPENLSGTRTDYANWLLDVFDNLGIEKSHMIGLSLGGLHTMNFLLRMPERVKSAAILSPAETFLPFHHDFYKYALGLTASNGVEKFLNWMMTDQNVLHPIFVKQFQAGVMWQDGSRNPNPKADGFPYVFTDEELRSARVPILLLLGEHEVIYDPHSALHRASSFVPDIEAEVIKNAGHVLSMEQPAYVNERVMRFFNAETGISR
# Test: Effect of chemical modifier on carboxyl esterase stability
# Assay type: biochemical
# Settings: used as chemical group to modify the enzyme
# From the text: In this respect it is to be noticed that only small and not too hydrophilic chemical groups can be used to modify the enzyme.
row,SMILES,effect on enzyme stability (in words)
1,O=Cc1ccccc1 [Benzaldehyde],does not have a positive effect on enzyme stability

# Molecular target: carboxyl esterase (Bacillus subtilis, UniProt Q59248)
# Test: Inactivation of carboxyl esterase by compounds
# Assay type: biochemical, Bacillus subtilis Thai 1-8
# Settings: reaction conditions, commercially interesting concentrations
# Method: The esterase as such is stable at pH=9 and T=40° C. (with and without Tween 80 (TM)) for several hours.
row,SMILES,inactivation of carboxyl esterase by the compound (in words)
1,Oc1ccc2ccccc2c1 [2-naphthol],inactivate the enzyme
2,O=C(O)COc1ccc2ccccc2c1 [2-naphthoxy acetic acid],inactivate the enzyme
3,CC(Oc1ccc(Oc2ccc(Cl)cc2Cl)cc1)C(=O)O (stereo not drawn) [diclofop],will inactivate the enzyme
4,"CC(C)Cc1ccc(C(C)C(=O)O)cc1 (stereo not drawn) [ibuprofen, reference compound]",inactivate the enzyme
5,Oc1ccccc1 [phenol],inactivate the enzyme
